Experimental data published in patent publication US7759337B2, “Phthalazine compounds and methods of use” (Amgen Inc., priority 2005, dated 2010).

What follows are molecules tested on production of TNF by monocytes activated with bacterial lipopolysaccharide (LPS) (assay: Lipopolysaccharide-activated monocyte TNF production assay). Details: Homo sapiens; whole blood monocyte assay (LPS induced TNF release).
Type: cell-based
Procedure: Test compounds were evaluated in vitro for the ability to inhibit the production of TNF by monocytes activated with bacterial lipopolysaccharide (LPS). Fresh residual source leukocytes (a byproduct of plateletpheresis) were obtained from a local blood bank, and peripheral blood mononuclear cells (PBMCs) were isolated by density gradient centrifugation on Ficol-Paque Plus (Pharmacia). PBMCs were suspended at 2×10^6/mL in DMEM supplemented to contain 2% FCS, 10 mM, 0.3 mg/mL […], 100 U/mL penicillin G and […] streptomycin sulfate (complete media). Cells were plated into Falcon flat bottom, 96 well culture plates (200 μL/well) and cultured overnight at 37° C. and 6% CO2. Non-adherent cells were removed by washing with 200 μl/well of fresh medium.
Test compounds were dissolved in […]. Compound stock solutions were prepared to an initial concentration of […]. Stocks were diluted initially to 20-200 μM in complete media. Nine two-fold serial dilutions of each compound were then prepared in complete medium.
One hundred microliters of each test compound dilution were added to microtiter wells containing adherent monocytes and 100 μL complete medium. Monocytes were cultured with test compounds for 60 min at which time 25 μL of complete medium containing 30 ng/mL lipopolysaccharide from E. coli K532 were added to each well. Cells were cultured an additional 4 hrs. Culture supernatants were then removed and TNF presence in the supernatants was quantified using an ELISA.
Flat bottom, 96 well Corning High Binding ELISA plates were coated overnight (4° C.) with 150 μL/well of 3 μg/mL murine anti-human TNF-α MAb (R&D Systems #MAB210). Wells were then blocked for 1 h at room temperature with 200 μL/well of CaCl2-free ELISA buffer supplemented to contain 20 mg/mL BSA (standard ELISA buffer: […], 150 mM NaCl, 2 mM CaCl2, 0.15 mM thimerosal, pH 7.4). Plates were washed and replenished with 100 μL of test supernatants (diluted 1:3) or standards. Standards consisted of eleven 1.5-fold serial dilutions from a stock of I ng/mL recombinant human TNF (R&D Systems). Plates were incubated at room temperature for 1 h on orbital shaker (300 rpm), washed and replenished with 100 μL/well of 0.5 μg/mL goat anti-human TNF-α (R&D systems #AB-210-NA) biotinylated at a 4:1 ratio. Plates were incubated for 40 min, washed and replenished with 100 μL/well of alkaline phosphatase-conjugated streptavidin (Jackson ImmunoResearch #016-050-084) at 0.02 μg/mL. Plates were incubated 30 min, washed and replenished with 200 μL/well of 1 mg/mL of p-nitrophenyl phosphate. After 30 min, plates were read at 405 nm on a Vmax plate reader.
Standard curve data were fit to a second order polynomial and unknown TNF-α concentrations determined from their OD by solving this equation for concentration. TNF concentrations were then plotted vs. test compound concentration using a second order polynomial. This equation was then used to calculate the concentration of test compounds causing a 50% reduction in TNF production.
With `Cc1ccc(C(N)=O)cc1-c1ccc2c(N3[C@H](C)CC[C@H]3C)nncc2c1` [Example 394, 3-{1-[(2R,5R)-2,5-dimethylpyrrolidin-1-yl]phthalazin-6-yl}-4-methylbenzamide] the IC50 was no more than 5 µM.
Molecule `Cc1ccc(C(=O)NC2CC2)cc1-c1ccc2c(N3CCO[C@@H](CO)C3)nncc2c1` [Example 160, N-cyclopropyl-3-{1-[(2R)-2-(hydroxymethyl)morpholin-4-yl]phthalazin-6-yl}-4-methylbenzamide] has an IC50 of no more than 5 µM.
`Cc1ccc(C(=O)NC2CC2)cc1-c1ccc2c(OC(C)C)nncc2c1` [Example 168, N-cyclopropyl-3-(1-isopropoxyphthalazin-6-yl)-4-methylbenzamide] gave an IC50 of no more than 5 µM.
`Cc1ccc(C(N)=O)cc1-c1ccc2c(N3C[C@@H](C)NC[C@@H]3C)nncc2c1` [Example 122, 3-{1-[(2S,5R)-2,5-dimethylpiperazin-1-yl]phthalazin-6-yl}-4-methylbenzamide] showed an IC50 of no more than 5 µM.
`Cc1ccc(C(=O)NC2CC2)cc1-c1ccc2c(N3CCC[C@@H]4CCCC[C@@H]43)nncc2c1` [Example 154, 3-{1-[(4aS,8aS)-octahydroquinolin-1(2H)-yl]phthalazin-6-yl}-N-cyclopropyl-4-methylbenzamide] gave an IC50 of no more than 5 µM.
Molecule `COc1ccc(-c2nncc3cc(-c4cc(C(=O)NC5CC5)ccc4C)ccc23)c(C)n1` [Example 207, N-cyclopropyl-3-[1-(6-methoxy-2-methylpyridin-3-yl)phthalazin-6-yl]-4-methylbenzamide] has an IC50 of no more than 5 µM.
`COCCN(C)c1nncc2cc(-c3cc(C(=O)NC4CC4)ccc3C)ccc12` [Example 188, N-cyclopropyl-3-{1-[(2-methoxyethyl)(methyl)amino]phthalazin-6-yl}-4-methylbenzamide] gave an IC50 of no more than 5 µM.
For `COc1c(C)cccc1-c1nncc2cc(-c3cc(C(=O)NC4CC4)ccc3C)ccc12` [Example 201, N-cyclopropyl-3-[1-(2-methoxy-3-methylphenyl)phthalazin-6-yl]-4-methylbenzamide], the IC50 was no more than 5 µM.
Molecule `COc1cc(Cl)ccc1-c1nncc2cc(-c3cc(C(=O)NC4CC4)ccc3C)ccc12` [Example 224, 3-[1-(4-chloro-2-methoxyphenyl)phthalazin-6-yl]-N-cyclopropyl-4-methylbenzamide] has an IC50 of no more than 5 µM.
For `Cc1ccc(C(N)=O)cc1-c1ccc2c(N3CCNC[C@@H]3C)nncc2c1` [Example 146, 4-methyl-3-{1-[(2S)-2-methylpiperazin-1-yl]phthalazin-6-yl}benzamide], the IC50 was no more than 5 µM.
Work on `COc1ccccc1Oc1nncc2cc(-c3cc(C(N)=O)ccc3C)ccc12` [Example 306, 3-[1-(2-methoxyphenoxy)phthalazin-6-yl]-4-methylbenzamide] yielded an IC50 of no more than 5 µM.
Work on `Cc1ccc(C(=O)NC2CC2)cc1-c1ccc2c(OCC(C)(C)C)nncc2c1` [Example 326, N-cyclopropyl-4-methyl-3-[1-(neopentyloxy)phthalazin-6-yl]benzamide] yielded an IC50 of no more than 5 µM.
With `COc1nc(N(C)C)ncc1-c1nncc2cc(-c3cc(C(=O)NC4CC4)ccc3C)ccc12` [Example 197, N-cyclopropyl-3-{1-[2-(dimethylamino)-4-methoxypyrimidin-5-yl]phthalazin-6-yl}-4-methylbenzamide] the IC50 was no more than 5 µM.
Work on `Cc1ccc(C(=O)NC2CC2)cc1-c1ccc2c(-c3ccccc3Cl)nncc2c1` [Example 170, 3-[1-(2-chlorophenyl)phthalazin-6-yl]-N-cyclopropyl-4-methylbenzamide] yielded an IC50 of no more than 5 µM.
`Cc1ccc(C(=O)NC2CC2)cc1-c1ccc2c(Cl)nncc2c1` [Example 164, 3-(1-chlorophthalazin-6-yl)-N-cyclopropyl-4-methylbenzamide] was tested, and the IC50 was no more than 5 µM.
With `O=C(NC1CC1)c1ccc(F)c(-c2ccc3c(N4CCOCC4)nncc3c2)c1` [Example 72, N-Cyclopropyl-4-fluoro-3-(1-morpholin-4-ylphthalazin-6-yl)benzamide] the IC50 was no more than 5 µM.
`Cc1ccc(S(N)(=O)=O)cc1-c1ccc2c(N3CCOCC3)nncc2c1` [Example 106, 4-Methyl-3-(1-morpholinophthalazin-6-yl)benzenesulfonamide] gave an IC50 of no more than 5 µM.
`Cc1ccc(C(=O)NC2CC2)cc1-c1ccc2c(NC3CCOCC3)nncc2c1` [Example 329, N-cyclopropyl-4-methyl-3-[1-(tetrahydro-2H-pyran-4-ylamino)phthalazin-6-yl]benzamide] showed an IC50 of no more than 5 µM.
For `Cc1ccc2c(N)nsc2c1-c1ccc2c(N3CCOC[C@@H]3C)nncc2c1` [Example 367, 6-methyl-7-{1-[(3S)-3-methylmorpholin-4-yl]phthalazin-6-yl}-1,2-benzisothiazol-3-amine], the IC50 was no more than 5 µM.
`CNc1noc2c(-c3ccc4c(N[C@@H](C)COC)nncc4c3)c(C)ccc12` [Example 399, N-[(1S)-2-methoxy-1-methylethyl]-6-[6-methyl-3-(methylamino)-1,2-benzisoxazol-7-yl]phthalazin-1-amine] gave an IC50 of no more than 5 µM.
For `Cc1ccc(C(=O)NC2CC2)cc1-c1ccc2c(N3CCC(C(N)=O)CC3)nncc2c1` [Example 114, 1-(6-{5-[(cyclopropylamino)carbonyl]-2-methylphenyl}phthalazin-1-yl)piperidine-4-carboxamide], the IC50 was no more than 5 µM.
In the case of `Cc1ccc(-c2nncc3cc(-c4cc(C(N)=O)ccc4C)ccc23)c(Cl)n1` [Example 211, 3-[1-(2-chloro-6-methylpyridin-3-yl)phthalazin-6-yl]-4-methylbenzamide], the IC50 is reported as no more than 5 µM.
For `COc1ncccc1-c1nncc2cc(Oc3ccc(F)cc3)ccc12` [Example 349, 6-(4-fluorophenoxy)-1-(2-methoxypyridin-3-yl)phthalazine], the IC50 was no more than 5 µM.
In the case of `Cc1ccc(C(=O)NC2CC2)cc1-c1ccc2c(C3=CCNCC3)nncc2c1` [Example 62, N-cyclopropyl-4-methyl-3-(1-(1,2,3,6-tetrahydropyridin-4-yl)phthalazin-6-yl)benzamide], the IC50 is reported as no more than 5 µM.
`Cc1ccc(C(=O)NC2CC2)cc1-c1ccc2c(-c3cccs3)nncc2c1` [Example 244, N-cyclopropyl-4-methyl-3-(1-thien-2-ylphthalazin-6-yl)benzamide] showed an IC50 of no more than 5 µM.
`Cc1ccc(C(=O)NC2CC2)cc1-c1ccc2c(N3C[C@@H](C)NC[C@@H]3C)nncc2c1` [Example 147, N-cyclopropyl-3-{1-[(2S,5R)-2,5-dimethylpiperazin-1-yl]phthalazin-6-yl}-4-methylbenzamide] gave an IC50 of no more than 5 µM.
`COc1ccc(-c2nncc3cc(-c4cc(C(N)=O)ccc4C)ccc23)c(C(F)(F)F)c1` [Example 237, 3-{1-[4-methoxy-2-(trifluoromethyl)phenyl]phthalazin-6-yl}-4-methylbenzamide] showed an IC50 of no more than 5 µM.
For `Fc1ccc(Oc2ccc3c(-c4ccccc4Cl)nncc3c2)cc1` [Example 12, 1-(2-chlorophenyl)-6-(4-fluorophenoxy)phthalazine], the IC50 was no more than 5 µM.
Work on `CC[C@@H](C)Nc1nncc2cc(-c3c(C)ccc4c(NC)noc34)ccc12` [Example 366, 6-[6-methyl-3-(methylamino)-1,2-benzisoxazol-7-yl]-N-[(1R)-1-methylpropyl]phthalazin-1-amine] yielded an IC50 of no more than 5 µM.
Molecule `Cc1ccc(C(=O)NC2CC2)cc1-c1ccc2c(N3CCNC[C@@H]3C)nncc2c1` [Example 63, N-cyclopropyl-4-methyl-3-(1-((S)-2-methylpiperazin-1-yl)phthalazin-6-yl)benzamide] has an IC50 of no more than 5 µM.
For `Cc1ccc(C(N)=O)cc1-c1ccc2c(Oc3cccc(Cl)c3)nncc2c1` [Example 307, 3-[1-(3-chlorophenoxy)phthalazin-6-yl]-4-methylbenzamide], the IC50 was no more than 5 µM.
In the case of `Cc1ccc(C(N)=O)cc1-c1ccc2c(-c3ccc(F)cc3Cl)nncc2c1` [Example 222, 3-[1-(2-chloro-4-fluorophenyl)phthalazin-6-yl]-4-methylbenzamide], the IC50 is reported as no more than 5 µM.
For `Cc1ccc(C(N)=O)cc1-c1ccc2c(-c3ccc(C(F)(F)F)cc3Cl)nncc2c1` [Example 199, 3-{1-[2-chloro-4-(trifluoromethyl)phenyl]phthalazin-6-yl}-4-methylbenzamide], the IC50 was no more than 5 µM.
`Cc1ccc(C(=O)NC2CCC2)cc1-c1ccc2c(N(C)C)nncc2c1` [Example 283, N-cyclobutyl-3-[1-(dimethylamino)phthalazin-6-yl]-4-methylbenzamide] showed an IC50 of no more than 5 µM.
